Assay results as given in patent publication US7491705B2, “Alpha-ketoamide derivative, and production method and use thereof” (Senju Pharmaceutical Co., Ltd., priority 2003, dated 2009).
Values after ≈ are worked out from the molar mass of the structure shown.

What was measured:
Caco-2 cells = test: Permeability test with Caco-2 cells; conditions: apical pH 6.5 → basolateral pH 7.4; 10 μm sample; 37° C.
Description: (§1) As a culture medium for the incubation, Dulbecco's modified Eagle's minimum essential medium (GIBCO BRL) supplemented with 10% fetal calf serum (GIBCO BRL), antibiotic-antimycotic mixture, liquid (GIBCO BRL), non-essential amino acid solution (GIBCO BRL) and 2 mmol/L L-glutamine (GIBCO BRL) was used. […] Propranolol was used as a positive control, and ^14C-mannitol was used as a negative control. LC-MS/MS was used for quantitative analysis of samples, and a liquid scintillation counter was used for quantitative analysis of ^14C-mannitol.
(§2) Papp: apparent permeation coefficient (cm/sec)
δQ/δt: permeation velocity (pmol/min)
A: area of monolayer cell=0.33 cm^2
(§3) C0: initial concentration at apical membrane side (pmol/mL)

ganglion cells of retina = test: Rat retinal ischemia reperfusion injury; format: in vivo; conditions: 100 mg/Kg oral, 15 minutes before ischemia and immediately after release, 7 days after reperfusion, P<0.05 vs control
Description: Male SD rats (body weight: 150-200 g, purchased from Charles River Japan, Inc.) were used. For anesthesia, a mixture of equivalent amounts of 50 mg/mL ketamine injection and 20 mg/mL xylazine injection was administered intramuscularly at 1.0 mL/Kg body weight into the femora of the rats 15 minutes before ischemia. To achieve ischemia, the optic nerve including central retinal artery was ligated using a Sugita Clip minitype (No. 98), and the blood flow was blocked for 55 minutes. Such ligation was released 55 minutes after the above ligation, and blood flow was made to run again into retina (hereinafter, referred to as ischemia reperfusion). For normal group, central retinal artery was only exposed and ischemia was not set up. After 7 days from reperfusion in ischemia, a tissue specimen was prepared. For preparation of the tissue specimen, an excess amount of pentobarbital solution was intraperitoneally administered to sacrifice the animal, and eyeball was enucleated. The enucleated eyeball was dipped and fixed for 24 hours in a fixing solution of 2% paraformaldehyde and 2.5% glutaraldehyde (0.1 M phosphate buffer, pH 7.4). […] The stained sections were observed under an optical microscope, and ganglion cells of retina per 0.25 mm width of retina section at 1-2 mm from the center of the optic disc were counted. […]

[1] = Transportation rate into blood after oral administration; format: in vivo, Macaca fascicularis (crab-eating monkey); conditions: cynomolgus monkey, 10 mg/kg, Macaca fascicularis, plasma; for AUC(0-t): read-out: AUC 0→4 hr
Description: The compound of the present invention was administered orally to Macaca fascicularis (crab-eating monkey) at a dose of 10 mg/kg. The blood was collected with the lapse of time, and the concentration of each compound in the plasma was measured.

[2] = Partition coefficient using IAM column; format: physicochemical; conditions: IAM Fast Screening Mini-Column; Dulbecco's phosphate buffer (pH 7.4)
Description: Analysis by HPLC system was carried out under the conditions given below, and retention time of each substance was measured. • Column: IAM Fast Screening Mini-Column (Regis Technologies, Inc.) • Mobile phase: Dulbecco's phosphate buffer (pH 7.4) • Detection wavelength: 250 nm • Column temperature: room temperature • Injection amount: 5.0 to 20 μL • Flow rate: 0.5 mL/min • Sample solution: 5 mg of sample was dissolved in 100 μL of acetonitrile, and a mobile phase was added to make 1 mL of a sample solution.
The measured value was inserted into the following formula, and the partition coefficient (K′ IAM) was calculated. k′IAM=(tR−t0)/t0 t0: retention time of the peak derived from acetonitrile tR: retention time of the peak of the sample

[3] = Solubility in 10 mM phosphate buffer (pH 7.0); format: physicochemical
Description: Solubility of the compounds of the present invention in 10 mM phosphate buffer (pH 7.0) was measured.

in vitro = conditions: human, Caco-2
Description: as §1, §2
δQ/δt: permeation velocity (pmol/min)
A: area of monolayer cell=0.33 cm^2
as §3

SMILES	Caco-2 Papp(a−b) (Caco-2 cells)	Ganglion cell count after retinal ischemia reperfusion (ganglion cells of retina)	Cmax [1] [nM]	AUC(0-t) [1] [µM·h]	IAM (Log k′IAM) [2]	Solubility [3] [µg/mL]	Papp A→B at 10 μm (in vitro) [×10⁻⁶ cm/s]
OCC(O)C(O)C(O)C(O)[14CH2]O (centres unmarked) [^14C-Mannitol, ^14C-mannitol]	0.6 (cms^−1) × 10^−6						
COCCOCCOC(=O)N[C@@H](CC(C)C)C(=O)N[C@@H](Cc1ccccc1)C(=O)C(=O)NC1CC1 [Compound 17, ((1S)-1-((((1S)-1-Benzyl-2,3-dioxo-3-(cyclopropylamino)propyl)amino)carbonyl)-3-methylbutyl)carbamic acid 5-methoxy-3-oxapentyl ester]		significantly suppressed the decrease	1100	2.4	1.27	650 (≈ 1320 µM)	
COCCOC(=O)N[C@@H](CC(C)C)C(=O)N[C@@H](Cc1ccccc1)C(=O)C(=O)NC1CC1 [Compound 4, ((1S)-1-((((1S)-1-Benzyl-2,3-dioxo-3-(cyclopropylamino)propyl)amino)carbonyl)-3-methylbutyl)carbamic acid 2-methoxyethyl ester]			1200	1.9	1.20	1300 (≈ 2900 µM)	2.7
